# Measured values published in ChEMBL document CHEMBL3588845, “Protozoan Parasite Growth Inhibitors Discovered by Cross-Screening Yield Potent Scaffolds for Lead Discovery” (J Med Chem, 2015).
# Tests used:
# Trypanosoma cruzi = assay: Antiparasite activity against Trypanosoma cruzi Tulahuen expressing beta-galactosidase assessed as growth inhibition incubated for 96 hrs by CPRG dye based assay; type: functional, organism-based
# Leishmania major [1] = assay: Antiparasite activity against Leishmania major promastigotes assessed as growth inhibition incubated for 44 hrs by alamar blue dye based fluorescence assay; type: functional, organism-based
# Leishmania major [2] = assay: Antiparasite activity against luciferase-expressing Leishmania major amastigotes isolated from infected in mouse RAW264.7 cells assessed as growth inhibition incubated for 96 hrs by luciferase reporter gene assay; type: functional, organism-based; conditions: RAW264.7, 96 h
# Plasmodium falciparum [3] = assay: Antiparasite activity against Plasmodium falciparum D6 assessed as growth inhibition incubated for 72 hrs by SYBR green fluorescence assay; type: functional, organism-based; conditions: D6, 72 h
# [4] = Toxicity against human HepG2 cells incubated for 48 hrs by MTT assay; type: cell-based; conditions: read-out: TC50
# Trypanosoma brucei = assay: Antiparasite activity against Trypanosoma brucei 427 assessed as growth inhibition incubated for 48 hrs by PrestoBlue based fluorescence assay; type: functional, organism-based; conditions: Trypanosoma brucei, 427, 48 h
# Plasmodium falciparum [5] = assay: Antiparasite activity against drug resistant Plasmodium falciparum W2 assessed as growth inhibition incubated for 72 hrs by SYBR green fluorescence assay; type: functional, organism-based; conditions: W2, 72 h
# Plasmodium falciparum [6] = assay: Antiparasite activity against drug resistant Plasmodium falciparum C235 assessed as growth inhibition incubated for 72 hrs by SYBR green fluorescence assay; type: functional, organism-based; conditions: C235, 72 h
Compound,EC50 (Trypanosoma cruzi) [nM],EC50 (Leishmania major [1]) [nM],EC50 (Leishmania major [2]) [nM],EC50 (Plasmodium falciparum [3]) [nM],CC50 at 48 h [4] [nM],EC50 (Trypanosoma brucei) [nM],EC50 (Plasmodium falciparum [5]) [nM],EC50 (Plasmodium falciparum [6]) [nM]
CN1CCCN(S(=O)(=O)c2ccc(-c3ccc4ncnc(Nc5ccc(OCc6cccc(F)c6)c(Cl)c5)c4c3)cc2)CC1,510,3600,2100,46,1100,–,–,–
CN1CCN(S(=O)(=O)c2ccc(-c3cc4c(Nc5ccc(OCc6cccc(F)c6)c(Cl)c5)ncnc4s3)cc2)CC1,–,–,–,–,> 15000,–,–,–
CN1CCCN(S(=O)(=O)c2ccc(-c3cc4ncnc(Nc5ccc(OCc6cccc(F)c6)c(Cl)c5)c4s3)cc2)CC1,–,–,–,–,> 15000,–,–,–
CN1CCCN(S(=O)(=O)c2ccc(-c3cc4c(Nc5ccc(OCc6cccc(F)c6)c(Cl)c5)ncnc4s3)cc2)CC1,–,–,–,–,> 15000,–,–,–
Fc1cccc(COc2ccc(Nc3ccnc4ccc(-c5cccc(N6CCOCC6)c5)cc34)cc2Cl)c1,6600,900,4000,35,10000,1000,96,43
Fc1cccc(COc2ccc(Nc3ccnc4cc(-c5cccc(N6CCOCC6)c5)ccc34)cc2Cl)c1,2700,1400,3700,61,> 5000,1200,180,80
O=S(=O)(c1ccc(-c2ccc3c(Nc4ccc(OCc5ccccc5)c(Cl)c4)ccnc3c2)cc1)N1CCOCC1,3500,> 1500,> 1500,16,> 3000,240,44,18
CN1CCN(S(=O)(=O)c2ccc(-c3ccc4nccc(Nc5ccc(OCc6cccc(F)c6)c(Cl)c5)c4c3)cc2)CC1,5300,600,2000,> 16000,6400,460,> 16000,> 16000
CN1CCCN(S(=O)(=O)c2ccc(-c3ccc4nccc(Nc5ccc(OCc6cccc(F)c6)c(Cl)c5)c4c3)cc2)CC1,930,400,2300,86,4300,140,81,110
CN1CCCN(S(=O)(=O)c2ccc(-c3ccc4c(Nc5ccc(OCc6cccc(F)c6)c(Cl)c5)ccnc4c3)cc2)CC1,730,400,890,94,5000,87,66,67
O=S(=O)(c1ccc(-c2ccc3ccnc(Nc4ccc(OCc5ccccc5)c(Cl)c4)c3c2)cc1)N1CCOCC1,> 50000,> 15000,> 15000,870,> 25000,> 2500,5500,4000
O=S(=O)(c1ccc(-c2ccc3c(Nc4ccc(OCc5ccccc5)c(Cl)c4)nccc3c2)cc1)N1CCOCC1,> 50000,> 15000,> 3000,3400,> 5000,91,3400,3400
CN1CCN(S(=O)(=O)c2ccc(-c3ccc4ccnc(Nc5ccc(OCc6cccc(F)c6)c(Cl)c5)c4c3)cc2)CC1,> 50000,> 15000,> 15000,40,> 15000,1800,200,89
CN1CCN(S(=O)(=O)c2ccc(-c3ccc4c(Nc5ccc(OCc6cccc(F)c6)c(Cl)c5)nccc4c3)cc2)CC1,> 50000,2700,> 15000,110,> 15000,100,360,180
CN1CCCN(S(=O)(=O)c2ccc(-c3ccc4ccnc(Nc5ccc(OCc6cccc(F)c6)c(Cl)c5)c4c3)cc2)CC1,4700,1300,2200,86,> 15000,730,270,100
CN1CCCN(S(=O)(=O)c2ccc(-c3ccc4c(Nc5ccc(OCc6cccc(F)c6)c(Cl)c5)nccc4c3)cc2)CC1,33000,440,4400,410,> 15000,390,2200,1000
Fc1cccc(COc2ccc(Nc3cnnc4ccc(-c5cccc(N6CCOCC6)c5)cc34)cc2Cl)c1,> 50000,> 15000,> 15000,540,> 15000,1100,1500,690
Fc1cccc(COc2ccc(Nc3cnnc4cc(-c5cccc(N6CCOCC6)c5)ccc34)cc2Cl)c1,45000,9800,> 15000,200,11000,890,230,410
O=S(=O)(c1ccc(-c2ccc3nncc(Nc4ccc(OCc5ccccc5)c(Cl)c4)c3c2)cc1)N1CCOCC1,> 50000,> 15000,> 15000,820,> 15000,1200,940,1400
O=S(=O)(c1ccc(-c2ccc3c(Nc4ccc(OCc5ccccc5)c(Cl)c4)cnnc3c2)cc1)N1CCOCC1,15000,> 15000,> 15000,150,> 11000,1200,530,300
CN1CCN(S(=O)(=O)c2ccc(-c3ccc4nncc(Nc5ccc(OCc6cccc(F)c6)c(Cl)c5)c4c3)cc2)CC1,> 50000,> 15000,1900,130,> 15000,980,290,140
Fc1cccc(COc2ccc(Nc3ncnc4cc(-c5cccc(N6CCOCC6)c5)sc34)cc2Cl)c1,–,–,–,–,> 15000,–,–,–
Fc1cccc(COc2ccc(Nc3ncnc4sc(-c5cccc(N6CCOCC6)c5)cc34)cc2Cl)c1,–,–,–,–,> 15000,–,–,–
O=S(=O)(c1ccc(-c2cc3ncnc(Nc4ccc(OCc5ccccc5)c(Cl)c4)c3s2)cc1)N1CCOCC1,–,–,–,–,> 5000,–,–,–
O=S(=O)(c1ccc(-c2cc3c(Nc4ccc(OCc5ccccc5)c(Cl)c4)ncnc3s2)cc1)N1CCOCC1,–,–,–,–,> 15000,–,–,–
CN1CCN(S(=O)(=O)c2ccc(-c3cc4ncnc(Nc5ccc(OCc6cccc(F)c6)c(Cl)c5)c4s3)cc2)CC1,–,–,–,–,> 15000,–,–,–
C[C@@H]1[C@H](O)[C@@H](C)/C=C/C=C/C=C/C=C/C=C/C=C/C=C/[C@H](O[C@@H]2O[C@H](C)[C@@H](O)[C@H](N)[C@@H]2O)C[C@@H]2O[C@](O)(C[C@@H](O)C[C@@H](O)[C@H](O)CC[C@@H](O)C[C@@H](O)CC(=O)O[C@H]1C)C[C@H](O)[C@H]2C(=O)O [AMPHOTERICIN B],–,89,47,–,–,–,–,–
O=C(Cn1ccnc1[N+](=O)[O-])NCc1ccccc1 [BENZNIDAZOLE],1200,–,–,–,–,–,–,–
Cc1ccc(C(=O)Nc2ccc(S(=O)(=O)O)c3cc(S(=O)(=O)O)cc(S(=O)(=O)O)c23)cc1NC(=O)c1cccc(NC(=O)Nc2cccc(C(=O)Nc3cc(C(=O)Nc4ccc(S(=O)(=O)O)c5cc(S(=O)(=O)O)cc(S(=O)(=O)O)c45)ccc3C)c2)c1 [SURAMIN],–,–,–,–,–,40,–,–
